Measured values reported in the supplement of paper PMC8671470.

Tests used:
Conditions in all cases: 72 h
HL-60 [1] = tested on: HL-60
Method in brief: (§1)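 The IC50 was derived from log-logistic dose–response fitting. Each of fifteen myeloid leukaemia cell lines, seeded in RPMI 1640 within its linear growth range, was exposed in 384-well plates to five tenfold doses (1 to 10,000 nM) in duplicate for 72 h at 37 °C and 5% CO2. Luminescent ATP viability readings were normalised to vehicle and to a positive control at 10 µM before four-parameter curve fitting.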

MV4-11 [2] = tested on: MV4-11
Method in brief: as §1

KCL-22 [3] = tested on: KCL-22
Method in brief: as §1

K-562 [4] = tested on: K-562
Method in brief: as §1

ML-2 [5] = tested on: ML-2
Method in brief: as §1

KG-1 [6] = tested on: KG-1
Method in brief: as §1

LAMA-84 [7] = tested on: LAMA-84
Method in brief: as §1

THP-1 [8] = tested on: THP-1
Method in brief: as §1

NOMO-1 [9] = tested on: NOMO-1
Method in brief: as §1

SHI-1 [10] = tested on: SHI-1
Method in brief: as §1

MOLM-13 [11] = tested on: MOLM-13
Method in brief: as §1

HEL [12] = tested on: HEL
Method in brief: as §1

Mono-Mac-6 [13] = tested on: Mono-Mac-6
Method in brief: as §1

KU-812 [14] = tested on: KU-812
Method in brief: as §1

BV-173 [15] = tested on: BV-173
Method in brief: as §1

HL-60 [16] = assay: cell viability (% survival relative to DMSO control, bortezomib = 0%); higher = less cytotoxic
Method in brief: (§2)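 Seeding density for each of the 10 AML and 5 CML cell lines was titrated to the linear growth range. Cells went into 384-well plates pre-printed in duplicate with compounds at 1, 10, 100, 1000 or 10000 nM and were held for 72 h at 37 °C with 5% CO2. CellTiter-Glo luminescence then provided the readout. Percent survival is expressed relative to vehicle at 100% and a 10 µM positive control at 0%, averaged over duplicates.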

MV4-11 [17] = assay: as above
Method in brief: as §2

KCL-22 [18] = assay: as above
Method in brief: as §2

K-562 [19] = assay: as above
Method in brief: as §2

ML-2 [20] = assay: as above
Method in brief: as §2

KG-1 [21] = assay: as above
Method in brief: as §2

LAMA-84 [22] = assay: as above
Method in brief: as §2

THP-1 [23] = assay: as above
Method in brief: as §2

NOMO-1 [24] = assay: as above
Method in brief: as §2

SHI-1 [25] = assay: as above
Method in brief: as §2

MOLM-13 [26] = assay: as above
Method in brief: as §2

HEL [27] = assay: as above
Method in brief: as §2

Mono-Mac-6 [28] = assay: as above
Method in brief: as §2

KU-812 [29] = assay: as above
Method in brief: as §2

BV-173 [30] = assay: as above
Method in brief: as §2

CCCCC/C=C\C/C=C\C/C=C\C/C=C\CCCC(=O)C(F)(F)F [Arachidonyl trifluoromethyl ketone]
Conditions | IC50 (cell viability) [µM]
BV-173 [15] | > 10
HEL [12] | > 10
HL-60 [1] | > 10
K-562 [4] | > 10
KCL-22 [3] | > 10
KG-1 [6] | > 10
KU-812 [14] | > 10
LAMA-84 [7] | > 10
ML-2 [5] | > 10
MOLM-13 [11] | > 10
MV4-11 [2] | > 10
Mono-Mac-6 [13] | 7.99
NOMO-1 [9] | > 10
SHI-1 [10] | > 10
THP-1 [8] | > 10

cell viability [%]
Conditions | 1 nM | 10 nM | 100 nM | 1000 nM | 10000 nM
BV-173 [30] | 103 | 96.6 | 95.7 | 92 | 76.6
HEL [27] | 97.5 | 89.6 | 118 | 98.8 | 80.8
HL-60 [16] | 98.9 | 100 | 108 | 93.9 | 96.5
K-562 [19] | 101 | 96.1 | 104 | 96.8 | 90.6
KCL-22 [18] | 96.9 | 103 | 105 | 97.2 | 87.5
KG-1 [21] | 90.8 | 102 | 92.6 | 90 | 47.7
KU-812 [29] | 104 | 86.9 | 88.4 | 68.5 | 61.7
LAMA-84 [22] | 106 | 95.5 | 77.6 | 85.8 | 79.5
ML-2 [20] | 98.9 | 98.3 | 111 | 99.2 | 77.8
MOLM-13 [26] | 103 | 74 | 85.8 | 102 | 86.4
MV4-11 [17] | 99.4 | 99.8 | 101 | 97.6 | 85.9
Mono-Mac-6 [28] | 98.5 | 97.9 | 102 | 80.7 | 57.7
NOMO-1 [24] | 90.4 | 98.7 | 92.1 | 84.5 | 79.9
SHI-1 [25] | 99 | 101 | 103 | 96.9 | 104
THP-1 [23] | 95.2 | 103 | 94.1 | 87.5 | 61.1

O=C(/C=C/c1cccnc1)NCCCCC1CCN(C(=O)c2ccccc2)CC1 [Daporinad]
Conditions | IC50 (cell viability) [µM]
BV-173 [15] | < 0.001
HEL [12] | 0.00233
HL-60 [1] | 0.00147
K-562 [4] | 0.00378
KCL-22 [3] | 0.00331
KG-1 [6] | 0.00363
KU-812 [14] | 0.00334
LAMA-84 [7] | 0.00218
ML-2 [5] | 0.00139
MOLM-13 [11] | 0.00369
MV4-11 [2] | < 0.001
Mono-Mac-6 [13] | 0.0206
NOMO-1 [9] | < 0.001
SHI-1 [10] | > 10
THP-1 [8] | > 10

cell viability [%]
Conditions | 1 nM | 10 nM | 100 nM | 1000 nM | 10000 nM
BV-173 [30] | 15.7 | 1.15 | 0.0754 | 0.00943 | 0.321
HEL [27] | 85.7 | 2.97 | 1.75 | 1.48 | 1.85
HL-60 [16] | 63.1 | 6.64 | -0.363 | -0.298 | -0.289
K-562 [19] | 86.5 | 20.4 | 1.83 | 0.861 | 1.37
KCL-22 [18] | 83.9 | 10.3 | 1.38 | 1.35 | 1.59
KG-1 [21] | 88 | 25.3 | 10.8 | 8.29 | 7.46
KU-812 [29] | 71.9 | 14.8 | 5.16 | 5.8 | 4.77
LAMA-84 [22] | 83.1 | 6.18 | 2.02 | 1.79 | 2.17
ML-2 [20] | 66 | 1.63 | 0.115 | 0.00307 | -0.274
MOLM-13 [26] | 69.1 | 15.7 | 0.0519 | 0.204 | -0.318
MV4-11 [17] | 25.5 | 0.401 | 0.0312 | -0.345 | -0.425
Mono-Mac-6 [28] | 99.2 | 75.4 | 16.7 | 16.4 | 0.909
NOMO-1 [24] | 34.5 | 1.36 | 0.217 | 0.164 | 0.267
SHI-1 [25] | 86.7 | 107 | 83 | 68.9 | 75.5
THP-1 [23] | 85.6 | 120 | 102 | 104 | 101

O=C(C(=O)c1ccc(Br)cc1)c1ccc(Br)cc1 [4,4'-Dibromobenzil]
Conditions | IC50 (cell viability) [µM]
BV-173 [15] | > 10
HEL [12] | > 10
HL-60 [1] | > 10
K-562 [4] | > 10
KCL-22 [3] | > 10
KG-1 [6] | > 10
KU-812 [14] | > 10
LAMA-84 [7] | > 10
ML-2 [5] | > 10
MOLM-13 [11] | > 10
MV4-11 [2] | > 10
Mono-Mac-6 [13] | > 10
NOMO-1 [9] | > 10
SHI-1 [10] | > 10
THP-1 [8] | > 10

cell viability [%]
Conditions | 1 nM | 10 nM | 100 nM | 1000 nM | 10000 nM
BV-173 [30] | 104 | 117 | 112 | 105 | 117
HEL [27] | 96.7 | 96.8 | 120 | 114 | 115
HL-60 [16] | 91.8 | 99.6 | 93.4 | 98.1 | 88.5
K-562 [19] | 101 | 90.3 | 114 | 100 | 112
KCL-22 [18] | 95.4 | 87.2 | 94.9 | 101 | 95.5
KG-1 [21] | 95.5 | 98.6 | 101 | 100 | 91
KU-812 [29] | 86.9 | 98.3 | 104 | 103 | 91.5
LAMA-84 [22] | 98.8 | 101 | 109 | 106 | 96.9
ML-2 [20] | 91.7 | 99.9 | 92.3 | 100 | 107
MOLM-13 [26] | 87 | 83.8 | 80.4 | 87.5 | 93.8
MV4-11 [17] | 101 | 92.1 | 107 | 85.3 | 89.3
Mono-Mac-6 [28] | 109 | 101 | 94 | 109 | 97.9
NOMO-1 [24] | 95.6 | 110 | 99.8 | 104 | 96.2
SHI-1 [25] | 92.4 | 101 | 90 | 103 | 98.4
THP-1 [23] | 98.2 | 103 | 100 | 95 | 97.6
